Results on 22 molecules are retold here after patent US20130261077A1 (priority 2012, published 2013).

For orientation: Kd means the constant that tells how readily two partners part at equilibrium.

T1 sequence (P08191 22-177): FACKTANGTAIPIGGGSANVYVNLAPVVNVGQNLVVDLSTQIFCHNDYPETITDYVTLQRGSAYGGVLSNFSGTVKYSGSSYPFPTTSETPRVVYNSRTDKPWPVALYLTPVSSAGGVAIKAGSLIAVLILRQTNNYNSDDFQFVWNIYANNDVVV

This test addresses T1, FimH-CRD (Escherichia coli, UniProt P08191).
T1 construct: The first 177 amino acids of the FimH protein; thrombin tag (printed as 'fusion protein with thrombin') (cleaved yes); made in house; host or cells: bacteria (pET21b plasmid)
Put plainly: Competitive binding assay by fluorescence polarization, assay 2 (compounds prepared by robotics, plates frozen and thawed). Here is the method: The first 177 amino acids of the FimH protein were expressed as a fusion protein with thrombin in a pET21b plasmid in bacteria. This FimH protein sequence contains the carbohydrate recognition domain (CRD) and shall be termed FimH-CRD. Following bacterial expression of the protein, the FimH-CRD protein was purified to homogeneity and the thrombin tag removed by protease cleavage. A competitive binding assay by fluorescence polarization was performed using 5 nM of the Alexa 647 mannoside probe and 60 nM of the FimH-CRD. The samples are assayed in a low volume 384 well microtiter plate in a final volume of 20 μl. The final assay buffer conditions are the following, 50 mM Tris-Cl, ph 7.0, 100 mM NaCl, 1 mM EDTA, 5 mM β-mercaptoethanol, 0.05% BSA and 2.5% DMSO. Two assays are performed for FimH, termed assay 1 or assay 2. The assay conditions are the same for both assays except the following: assay 1 has compounds prepared by manual dilution in a serial dilution factor with 12-point dose response while assay 2 has compounds prepared by a robotics system also through a serial dilution factor (12 point dose response) and initially prepared in duplicate in 384 well-Corning polypropylene round bottom plates. The assay 2 plates have compound which is then frozen and must be thawed prior to use. Initially the Alexa 647 probe and the FimH-CRD are added to the assay buffer and then 0.5 μl of test compound (assay 1 or 2) between 0.4 nM to 75 μM final concentration are added (12 point titration with 3-fold serial dilution). Control wells for the Alexa 647 probe are prepared with the same conditions except for the addition of the FimH-CRD protein. Plates are then incubated for 5 hrs at room temperature in the dark and under humid conditions to prevent drying. Plates are read using the SpectraMax Paradigm multi-mode plate reader and the appropriate fluorescent polarization detection cartridge (Alexa-647).
Alexa 647 mannoside probe is prepared using the similar procedure reported for FAM mannoside (Han, Z. et. al., 2010, J. Med. Chem., 53, 4779) and is described in the scheme below.
To a blue colored stirred solution of (2S,3S,4S,5S,6R)-2-(4-aminobutoxy)-6-(hydroxymethyl)tetrahydropyran-3,4,5-triol (2.21 mg, 0.009 mmol) and the (2E)-2-[(2E,4E)-5-[3,3-dimethyl-5-sulfonato-1-(3-sulfonatopropyl)indol-1-ium-2-yl]penta-2,4-dienylidene]-3-[6-(2,5-dioxopyrrolidin-1-yl)oxy-6-oxo-hexyl]-3-methyl-1-(3-sulfonatopropyl)indoline-5-sulfonate (Potassium Ion (3)) (4.9 mg, 0.0044 mmol) in DMF (44 μL) is added Et3N (5.4 mg, 7.0 μL, 0.053 mmol) at RT. The solution is stirred at room temperature over night, concentrated, dissolved in water and purified on 12 g C-18 silica gel cartridge on Isolera system using acetonitrile in water (0 to 40%, 10 CV) and followed by lyophilization to afford Alexa 647 mannoside probe (3.3 mg, 34%) as deep blue solid.
The Kd values of the compounds are determined from dose response curves using twelve concentrations per compound in duplicate. Curves are fitted to data points using Fluorescence Polarization competitive displacement analysis, and Kds are interpolated from the resulting curves using GraphPad Prism software, version […] (GraphPad software Inc., San Diego, Calif., USA).
A general note: Polarisation of emitted light reports the rotation of a fluorescent probe.
`OC[C@H]1O[C@H](c2cccc(-c3ccc(-c4cnco4)cc3)c2)[C@@H](O)[C@@H](O)[C@@H]1O` [Compound 119, (2R,3S,4R,5S,6R)-2-(hydroxymethyl)-6-[3-(4-oxazol-5-ylphenyl)phenyl]tetrahydropyran-3,4,5-triol] returned a Kd of 19.5 ± 8.8 nM.

Consider `OC[C@H]1O[C@H](c2cccc(-c3ccc(-c4nnc(-c5ccccn5)o4)cc3)c2)[C@@H](O)[C@@H](O)[C@@H]1O` [Compound 120, (2R,3S,4R,5S,6R)-2-(hydroxymethyl)-6-[3-[4-[5-(2-pyridyl)-1,3,4-oxadiazol-2-yl]phenyl]phenyl]tetrahydropyran-3,4,5-triol], for which the Kd is 12.8 ± 2.1 nM.

`Cc1ccc(-c2nnc(-c3ccc(-c4cccc([C@H]5O[C@H](CO)[C@@H](O)[C@H](O)[C@@H]5O)c4)cc3)o2)o1` [Compound 121, (2R,3S,4R,5S,6R)-2-(hydroxymethyl)-6-[3-[4-[5-(5-methyl-2-furyl)-1,3,4-oxadiazol-2-yl]phenyl]phenyl]tetrahydropyran-3,4,5-triol] returned a Kd of 13.1 ± 0.9 nM.

Molecule `Cn1ccc(-c2ccc(-c3cccc([C@H]4O[C@H](CO)[C@@H](O)[C@H](O)[C@@H]4O)c3)cc2)n1` [Compound 122, (2R,3S,4R,5S,6R)-2-(hydroxymethyl)-6-[3-[4-(1-methylpyrazol-3-yl)phenyl]phenyl]tetrahydropyran-3,4,5-triol] displayed a Kd of 27.6 ± 7.4 nM.

For the molecule `Cc1nnc(-c2cccc(-c3cccc([C@H]4O[C@H](CO)[C@@H](O)[C@H](O)[C@@H]4O)c3)c2)o1` [Compound 123, (2R,3S,4R,5S,6R)-2-(hydroxymethyl)-6-[3-[3-(5-methyl-1,3,4-oxadiazol-2-yl)phenyl]phenyl]tetrahydropyran-3,4,5-triol], the Kd worked out at 37.1 ± 8.5 nM.

`Cn1nccc1-c1ccc(-c2cccc([C@H]3O[C@H](CO)[C@@H](O)[C@H](O)[C@@H]3O)c2)cc1` [Compound 124, (2R,3S,4R,5S,6R)-2-(hydroxymethyl)-6-[3-[4-(2-methylpyrazol-3-yl)phenyl]phenyl]tetrahydropyran-3,4,5-triol] had a Kd of 16.2 ± 2 nM.

For `Cc1nnc(-c2ccc(-c3cccc([C@H]4O[C@H](CO)[C@@H](O)[C@H](O)[C@@H]4O)c3)c(C)c2)o1` [Compound 125, (2R,3S,4R,5S,6R)-2-(hydroxymethyl)-6-[3-[2-methyl-4-(5-methyl-1,3,4-oxadiazol-2-yl)phenyl]phenyl]tetrahydropyran-3,4,5-triol], the Kd came out at 13.9 ± 2.6 nM.

`COc1cc(-c2cccc([C@H]3O[C@H](CO)[C@@H](O)[C@H](O)[C@@H]3O)c2)ccc1-c1nnc(C)o1` [Compound 127, (2R,3S,4R,5S,6R)-2-(hydroxymethyl)-6-[3-[3-methoxy-4-(5-methyl-1,3,4-oxadiazol-2-yl)phenyl]phenyl]tetrahydropyran-3,4,5-triol]: the Kd amounted to 17.4 ± 4.8 nM.

In the case of `COc1cc(-c2nnc(C)o2)ccc1-c1cccc([C@H]2O[C@H](CO)[C@@H](O)[C@H](O)[C@@H]2O)c1` [Compound 128, (2R,3S,4R,5S,6R)-2-(hydroxymethyl)-6-[3-[2-methoxy-4-(5-methyl-1,3,4-oxadiazol-2-yl)phenyl]phenyl]tetrahydropyran-3,4,5-triol], binding was put at a Kd of 74.7 ± 60.4 nM.

As for `Cc1nnc(-c2ccc(-c3ccc([C@H]4O[C@H](CO)[C@@H](O)[C@H](O)[C@@H]4O)cc3)cc2)o1` [Compound 129, (2R,3S,4R,5S,6R)-2-(hydroxymethyl)-6-[4-[4-(5-methyl-1,3,4-oxadiazol-2-yl)phenyl]phenyl]tetrahydropyran-3,4,5-triol], the affinity, expressed as Kd, was 22.9 ± 5.4 nM.

The molecule `CNC(=O)c1cc(/C=C\c2cccc([C@H]3O[C@H](CO)[C@@H](O)[C@H](O)[C@@H]3O)c2)cc(C(=O)NC)c1` [Compound 135] came in with a Kd of 22.3 ± 9.8 nM.

`CNC(=O)c1cc(/C=C/c2cccc([C@H]3O[C@H](CO)[C@@H](O)[C@H](O)[C@@H]3O)c2)cc(C(=O)NC)c1` [Compound 136] yielded a Kd of 19.2 ± 3.6 nM.

As to `OC[C@H]1O[C@H](c2cccc(/C=C\c3cc(Cl)cc(Cl)c3)c2)[C@@H](O)[C@@H](O)[C@@H]1O` [Compound 137, (2R,3S,4R,5S,6R)-2-[3-[(Z)-2-(3,5-dichlorophenyl)vinyl]phenyl]-6-(hydroxymethyl)tetrahydropyran-3,4,5-triol], the Kd is 29.9 ± 15.2 nM.

Consider `OC[C@H]1O[C@H](c2cccc(/C=C/c3cc(Cl)cc(Cl)c3)c2)[C@@H](O)[C@@H](O)[C@@H]1O` [Compound 138, (2R,3S,4R,5S,6R)-2-[3-[(E)-2-(3,5-dichlorophenyl)vinyl]phenyl]-6-(hydroxymethyl)tetrahydropyran-3,4,5-triol], for which binding was characterised by a dissociation constant (Kd) of 32.9 ± 6.3 nM.

`OC[C@H]1O[C@H](c2cccc(/C=C/c3ccccc3)c2)[C@@H](O)[C@@H](O)[C@@H]1O` [Compound 140, (2R,3S,4R,5S,6R)-2-(hydroxymethyl)-6-[3-[(E)-styryl]phenyl]tetrahydropyran-3,4,5-triol] returned a Kd of 15.3 ± 3.5 nM.

Take `CNC(=O)c1ccc(-c2cccc([C@H]3O[C@H](CO)[C@@H](O)[C@H](O)[C@@H]3O)c2)cc1-n1cncn1` [Compound 141, N-methyl-2-(1,2,4-triazol-1-yl)-4-[3-[(2R,3S,4R,5S,6R)-3,4,5-trihydroxy-6-(hydroxymethyl)tetrahydropyran-2-yl]phenyl]benzamide]: the Kd came to 56.2 ± 20 nM.

In turn, `COCc1cc(-c2cccc([C@H]3O[C@H](CO)[C@@H](O)[C@H](O)[C@@H]3O)c2)ccc1-c1nnc(C)o1` [Compound 142, (2R,3S,4R,5S,6R)-2-(hydroxymethyl)-6-[3-[3-(methoxymethyl)-4-(5-methyl-1,3,4-oxadiazol-2-yl)phenyl]phenyl]tetrahydropyran-3,4,5-triol] gave a Kd of 14.8 ± 5.9 nM.

For `Cc1nnc(-c2ccc(-c3cccc([C@H]4O[C@H](CO)[C@@H](O)[C@H](O)[C@@H]4O)c3)cc2O)o1` [Compound 143, (2R,3S,4R,5S,6R)-2-(hydroxymethyl)-6-[3-[3-hydroxy-4-(5-methyl-1,3,4-oxadiazol-2-yl)phenyl]phenyl]tetrahydropyran-3,4,5-triol], the Kd came to 11.2 ± 1 nM.

`COC(=O)c1ccc2nc(-c3cccc([C@H]4O[C@H](CO)[C@@H](O)[C@H](O)[C@@H]4O)c3)ccc2c1` [Compound 144, Methyl 2-[3-[(2R,3S,4R,5S,6R)-3,4,5-trihydroxy-6-(hydroxymethyl)tetrahydropyran-2-yl]phenyl]quinoline-6-carboxylate] displayed a Kd of 18.3 ± 7.5 nM.

Molecule `CNC(=O)c1ccc2nc(-c3cccc([C@H]4O[C@H](CO)[C@@H](O)[C@H](O)[C@@H]4O)c3)ccc2c1` [Compound 145, N-Methyl 2-[3-[(2R,3S,4R,5S,6R)-3,4,5-trihydroxy-6-(hydroxymethyl)tetrahydropyran-2-yl]phenyl]quinoline-6-carboxylate] yielded a dissociation constant (Kd) of 22.4 ± 4.7 nM.

The molecule `OCc1nc2cc(-c3cccc([C@H]4O[C@H](CO)[C@@H](O)[C@H](O)[C@@H]4O)c3)ccc2[nH]1` [Compound 146, (2R,3S,4R,5S,6R)-2-(Hydroxymethyl)-6-[3-[2-(hydroxymethyl)-1H-benzimidazol-5-yl]phenyl]tetrahydropyran-3,4,5-triol] gave a Kd of 27.8 ± 10.8 nM.

`OC[C@H]1O[C@H](c2cccc(-c3ccc4[nH]c(O)nc4c3)c2)[C@@H](O)[C@@H](O)[C@@H]1O` [Compound 147, (2R,3S,4R,5S,6R)-2-[3-(2-Hydroxy-1H-benzimidazol-5-yl)phenyl]-6-(hydroxymethyl)tetrahydropyran-3,4,5-triol] yielded a Kd of 10.9 ± 4 nM.
